Molecular target: T1, soluble guanylate cyclase (sGC) (Homo sapiens, UniProt Q02108+Q02153)
T1 sequence (Q02108 1-690): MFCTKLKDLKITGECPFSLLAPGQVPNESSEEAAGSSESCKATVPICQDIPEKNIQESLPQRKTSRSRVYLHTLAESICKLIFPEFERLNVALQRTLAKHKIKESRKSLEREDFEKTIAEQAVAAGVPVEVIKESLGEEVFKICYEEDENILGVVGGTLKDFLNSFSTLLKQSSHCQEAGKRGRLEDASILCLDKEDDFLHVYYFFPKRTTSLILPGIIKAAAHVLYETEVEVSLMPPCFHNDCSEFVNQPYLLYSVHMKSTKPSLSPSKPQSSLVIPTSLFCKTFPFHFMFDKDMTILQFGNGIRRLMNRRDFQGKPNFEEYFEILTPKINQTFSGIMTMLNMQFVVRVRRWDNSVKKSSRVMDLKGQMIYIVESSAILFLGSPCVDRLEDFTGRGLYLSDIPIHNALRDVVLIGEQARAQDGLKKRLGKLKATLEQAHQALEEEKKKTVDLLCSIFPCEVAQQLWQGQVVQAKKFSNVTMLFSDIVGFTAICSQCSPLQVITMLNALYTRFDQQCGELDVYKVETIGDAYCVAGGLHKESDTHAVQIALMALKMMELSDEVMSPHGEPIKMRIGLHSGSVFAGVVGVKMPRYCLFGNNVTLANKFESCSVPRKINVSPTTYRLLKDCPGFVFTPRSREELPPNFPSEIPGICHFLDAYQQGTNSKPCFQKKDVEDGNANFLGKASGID
T1 sequence (Q02153 1-619): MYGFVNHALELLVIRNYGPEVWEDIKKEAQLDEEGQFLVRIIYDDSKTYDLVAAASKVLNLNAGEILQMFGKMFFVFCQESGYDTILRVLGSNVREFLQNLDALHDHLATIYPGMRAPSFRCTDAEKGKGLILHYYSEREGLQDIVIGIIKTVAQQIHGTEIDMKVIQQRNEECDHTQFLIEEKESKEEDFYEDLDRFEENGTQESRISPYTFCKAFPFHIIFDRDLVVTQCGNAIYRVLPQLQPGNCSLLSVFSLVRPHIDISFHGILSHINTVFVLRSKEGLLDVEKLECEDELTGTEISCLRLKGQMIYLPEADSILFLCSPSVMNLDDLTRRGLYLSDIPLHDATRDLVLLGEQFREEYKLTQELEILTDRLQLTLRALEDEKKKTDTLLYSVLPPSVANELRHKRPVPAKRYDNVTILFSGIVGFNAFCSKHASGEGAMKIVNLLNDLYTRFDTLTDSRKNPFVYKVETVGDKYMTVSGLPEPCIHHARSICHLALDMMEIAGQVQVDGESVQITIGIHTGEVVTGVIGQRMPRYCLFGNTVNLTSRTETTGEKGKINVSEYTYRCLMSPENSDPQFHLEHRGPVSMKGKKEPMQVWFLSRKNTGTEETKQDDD
Assay: In vitro detection experiment for soluble guanylate cyclase (sGC) activity (TR-FRET);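 further: enzyme reaction started with GTP and run for 60 min at 37°C, followed by a 60 min detection step at room temperature, with EC50 obtained by nonlinear curve fitting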
Details: not given

| Compound | EC50 |
| --- | --- |
| CC(C)(Cc1coc(C2(C)C(=O)Nc3nc(-n4c(=O)n(CCC(F)(F)C(F)(F)F)c5cc(F)ccc54)nc(N)c32)n1)C(=O)O (centres unmarked) [Compound 11] | < 20 nM |
| CC(C)(Cc1csc(C2(C)C(=O)Nc3nc(-c4nn(Cc5ccccc5F)c5cccnc45)nc(N)c32)n1)C(=O)O (centres unmarked) [Trifluoroacetate of compound 23] | < 20 nM |
| CC(C)(Cc1csc(C2(C)C(=O)Nc3nc(-c4nc(CCC(F)(F)C(F)(F)F)n5cc(F)ccc45)nc(N)c32)n1)C(=O)O (racemic) [Compound 45] | < 20 nM |
| CC(C)(Cc1cccc(C2(C)C(=O)Nc3nc(-n4c(=O)n(CCC(F)(F)C(F)(F)F)c5ncccc54)nc(N)c32)c1)C(=O)O (racemic) [Compound 9] | < 20 nM |
| CC(C)(Cc1cccc(C2(C)C(=O)Nc3nc(-n4c(=O)n(CCC(F)(F)C(F)(F)F)c5cc(Cl)ccc54)nc(N)c32)c1)C(=O)O (single isomer, unassigned) [Compound 1-2] | < 20 nM |
| CC(C)(Cc1coc(C2(C)C(=O)Nc3nc(-n4nc(Cc5ccccc5F)c5cc(Cl)ccc54)nc(N)c32)n1)C(=O)O (centres unmarked) [Trifluoroacetate of compound 34] | < 20 nM |
| CC(C)(Cc1cccc(C2(C)C(=O)Nc3nc(-n4nc(CCC(F)(F)C(F)(F)F)c5ncccc54)nc(N)c32)c1)C(=O)O (centres unmarked) [Trifluoroacetate of compound 5] | < 20 nM |
| CC(C)(Cc1csc(C2(C)C(=O)Nc3nc(-c4nc(Cc5ccccc5F)n5ncccc45)nc(N)c32)n1)C(=O)O (racemic) [Compound 19] | < 20 nM |
| CC(C)(Cc1coc(C2(C)C(=O)Nc3nc(-n4nc(Cc5ccccc5F)c5c(F)cccc54)nc(N)c32)n1)C(=O)O (centres unmarked) [Compound 40] | < 20 nM |
| CC(C)(Cc1csc(C2(C)C(=O)Nc3nc(-n4nc(CCC(F)(F)C(F)(F)F)c5ncc(F)cc54)nc(N)c32)n1)C(=O)O (racemic) [Compound 37] | < 20 nM |
| CC(C)(Cc1csc(C2(C)C(=O)Nc3nc(-n4nc(Cc5ccccc5F)c5c(F)cccc54)nc(N)c32)n1)C(=O)O (racemic) [Compound 41] | < 20 nM |
| CC(C)(Cc1csc(C2(C)C(=O)Nc3nc(-n4nc(CCC(F)(F)C(F)(F)F)c5cc(F)ccc54)nc(N)c32)n1)C(=O)O (racemic) [Compound 17] | < 20 nM |
| CC(C)(Cc1csc(C2(C)C(=O)Nc3nc(-c4nn(Cc5cccc(F)c5F)c5cccnc45)nc(N)c32)n1)C(=O)O (centres unmarked) [Compound 24] | < 20 nM |
| CC(C)(Cc1csc(C2(C)C(=O)Nc3nc(-n4c(=O)n(CCC(F)(F)C(F)(F)F)c5ncccc54)nc(N)c32)n1)C(=O)O (centres unmarked) [Trifluoroacetate of compound 10] | < 20 nM |
| CC(C)(Cc1csc(C2(C)C(=O)Nc3nc(-n4nc(Cc5ccccc5F)c5ncc(F)cc54)nc(N)c32)n1)C(=O)O (racemic) [Compound 35] | < 20 nM |
| CC(C)(Cc1csc(C2(C)C(=O)Nc3nc(-n4c(=O)n(CC5CCCCC5)c5ncc(F)cc54)nc(N)c32)n1)C(=O)O (centres unmarked) [Compound 13] | < 20 nM |

| Compound | EC50 |
| --- | --- |
| CC(C)(Cc1csc(C2(C)C(=O)Nc3nc(-c4nc(CCC(F)(F)C(F)(F)F)n5ncccc45)nc(N)c32)n1)C(=O)O (racemic) [Compound 3] | < 20 nM |
| CC(C)(Cc1coc(C2(C)C(=O)Nc3nc(-c4nc(CCC(F)(F)C(F)(F)F)n5cc(F)ccc45)nc(N)c32)n1)C(=O)O (centres unmarked) [Compound 46] | < 20 nM |
| CC(C)(Cc1csc(C2(C)C(=O)Nc3nc(-n4nc(Cc5cccc(F)c5F)c5ncc(F)cc54)nc(N)c32)n1)C(=O)O (racemic) [Compound 36] | < 20 nM |
| CC(C)(Cc1csc(C2(C)C(=O)Nc3nc(-n4c(=O)n(Cc5cccc(F)c5F)c5ncc(F)cc54)nc(N)c32)n1)C(=O)O (centres unmarked) [Trifluoroacetate of compound 28] | < 20 nM |
| CC(C)(Cc1coc(C2(C)C(=O)Nc3nc(-c4nn(CCC(F)(F)C(F)(F)F)c5cc(Cl)cnc45)nc(N)c32)n1)C(=O)O (centres unmarked) [Compound 21] | < 20 nM |
| CC(C)(Cc1csc(C2(C)C(=O)Nc3nc(-n4nc(CCC(F)(F)C(F)(F)F)c5cc(Cl)ccc54)nc(N)c32)n1)C(=O)O (racemic) [Trifluoroacetate of compound 4] | < 20 nM |
| CC(C)(Cc1coc(C2(C)C(=O)Nc3nc(-n4c(=O)n(CCC(F)(F)C(F)(F)F)c5c(F)cccc54)nc(N)c32)n1)C(=O)O (centres unmarked) [Compound 16] | < 20 nM |
| CC(C)(Cc1cccc(C2(C)C(=O)Nc3nc(-c4nc(CCC(F)(F)C(F)(F)F)n5ncccc45)nc(N)c32)c1)C(=O)O (centres unmarked) [Compound 18] | < 20 nM |
| CC(C)(Cc1coc(C2(C)C(=O)Nc3nc(-n4nc(Cc5cccc(F)c5F)c5c(F)cccc54)nc(N)c32)n1)C(=O)O (centres unmarked) [Compound 42] | < 20 nM |
| CC(C)(Cc1csc(C2(C)C(=O)Nc3nc(-n4c(=O)n(CCC(F)(F)C(F)(F)F)c5ncc(F)cc54)nc(N)c32)n1)C(=O)O (racemic) [Compound 12] | < 20 nM |
| CC(C)(Cc1csc(C2(C)C(=O)Nc3nc(-n4nc(CC5CCCCC5)c5ncc(F)cc54)nc(N)c32)n1)C(=O)O (centres unmarked) [Compound 44] | < 20 nM |
| CC(C)(Cc1csc(C2(C)C(=O)Nc3nc(-n4c(=O)n(Cc5ccccc5F)c5cc(F)ccc54)nc(N)c32)n1)C(=O)O (racemic) [Trifluoroacetate of compound 38] | < 20 nM |
| CC(C)(Cc1csc(C2(C)C(=O)Nc3nc(-c4nn(CCC(F)(F)C(F)(F)F)c5cc(Cl)cnc45)nc(N)c32)n1)C(=O)O (centres unmarked) [Compound 20] | < 20 nM |
| CC(C)(Cc1csc(C2(C)C(=O)Nc3nc(-n4nc(CCC(F)(F)C(F)(F)F)c5ncccc54)nc(N)c32)n1)C(=O)O (centres unmarked) [Compound 29] | < 20 nM |
| CC(C)(Cc1csc(C2(C)C(=O)Nc3nc(-n4c(=O)n(CCC(F)(F)C(F)(F)F)c5c(F)cccc54)nc(N)c32)n1)C(=O)O (racemic) [Trifluoroacetate of compound 14] | < 20 nM |

Same assay, conditions: enzymatic agonism and/or activation of sGC; 1.5 nM sGC, 5 µM GTP, 100 µM DETA NONOate

| Compound | EC50 |
| --- | --- |
| CC(C)(Cc1csc(C2(C)C(=O)Nc3nc(-n4c(=O)n(CCC(F)(F)C(F)(F)F)c5cc(F)ccc54)nc(N)c32)n1)C(=O)O (centres unmarked) [Compound 31] | < 20 nM |
| CC(C)(Cc1csc(C2(C)C(=O)Nc3nc(-n4nc(Cc5ccccc5F)c5cc(Cl)ccc54)nc(N)c32)n1)C(=O)O (centres unmarked) [Trifluoroacetate of compound 32] | < 20 nM |
| CC(C)(Cc1coc(C2(C)C(=O)Nc3nc(-n4c(=O)n(CCC(F)(F)C(F)(F)F)c5cc(Cl)ccc54)nc(N)c32)n1)C(=O)O (centres unmarked) [Compound 8] | < 20 nM |
| CC(C)(Cc1csc(C2(C)C(=O)Nc3nc(-n4c(=O)n(Cc5ccccc5F)c5c(F)cccc54)nc(N)c32)n1)C(=O)O (centres unmarked) [Trifluoroacetate of compound 15] | < 20 nM |
| CC(C)(Cc1coc(C2(C)C(=O)Nc3nc(-n4nc(CCC(F)(F)C(F)(F)F)c5cc(F)ccc54)nc(N)c32)n1)C(=O)O (centres unmarked) [Trifluoroacetate of compound 33] | < 20 nM |

Tested on: not listed separately
Assay: Pharmacokinetic test in rats (inhalation administration)
Details: SD rats, single inhalation dose 0.03 mg/kg
Experimental: Experimental objective: In this experiment, the test compound was administered as a single dose via inhalation to SD rats, and the concentrations of the test compound in rat plasma and lungs were determined to evaluate the pharmacokinetic characteristics and bioavailability of the test compound in the rats.
Experimental animals: Male SD rats, 180-200 g, purchased from Chengdu Dossy Experimental Animals Co., Ltd.
Experimental method: On the day of the experiment, SD rats were randomly assigned into 6 groups according to body weight (for each compound), with 2 rats in each group. The rats were fasted with water available for 12 to 16 hours one day before the administration, and were fed 4 hours after the administration.
Plasma sampling: before and after the administration, blood was taken from the orbits of the rats under isoflurane anaesthesia, and placed in an EDTAK2 centrifuge tube. Centrifugation was performed at 6000 rpm at 4°C for 10 min, and the plasma was collected.
Lung tissue sampling: Animals from each group were euthanised by CO2 inhalation at 0.25, 0.5, 1, 4, 7 and 24 hours after the administration. Then, the animal was dissected to collect lung tissue, which was rinsed with physiological saline, dried with filter paper, weighed in the balance, kept on wet ice and homogenised within 2 hours using a 6-fold volume (i.e., 6 mL per 1 g of tissue) of homogenisation buffer (50% methanol-water).
Before analysis and detection, all samples were stored at -60°C. The samples were analysed quantitatively by LC-MS/MS.

| Compound | Lung AUC0-t/plasma AUC0-t |
| --- | --- |
| CC(C)(Cc1csc([C@]2(C)C(=O)Nc3nc(-c4nc(CCC(F)(F)C(F)(F)F)n5ncccc45)nc(N)c32)n1)C(=O)O [Compound 3-1] | 65 |
| CC(C)(Cc1csc([C@]2(C)C(=O)Nc3nc(-c4nc(Cc5ccccc5F)n5ncccc45)nc(N)c32)n1)C(=O)O [Compound 19-1] | 245 |
| CC(C)(Cc1cccc([C@@]2(C)C(=O)Nc3nc(-c4nn(CCC(F)(F)C(F)(F)F)c5cc(Cl)cnc45)nc(N)c32)c1)C(=O)O [Compound 6-1] | 659 |
| CC(C)(Cc1csc([C@]2(C)C(=O)Nc3nc(-n4c(=O)n(Cc5ccccc5F)c5cc(F)ccc54)nc(N)c32)n1)C(=O)O [Compound 38-1] | 83.6 |
| CC(C)(Cc1csc(C2(C)C(=O)Nc3nc(-n4nc(Cc5cccc(F)c5F)c5ncc(F)cc54)nc(N)c32)n1)C(=O)O (single isomer, unassigned) [Compound 36-1] | 49.1 |

Same assay, conditions: SD rats, single inhalation dose 0.03 mg/kg, lung tissue

| Compound | Lung AUC0-t | Lung Cmax |
| --- | --- | --- |
| CC(C)(Cc1csc([C@]2(C)C(=O)Nc3nc(-c4nc(CCC(F)(F)C(F)(F)F)n5ncccc45)nc(N)c32)n1)C(=O)O [Compound 3-1] | 3626 ng·h/mL | 2979 ng/mL |
| CC(C)(Cc1csc([C@]2(C)C(=O)Nc3nc(-c4nc(Cc5ccccc5F)n5ncccc45)nc(N)c32)n1)C(=O)O [Compound 19-1] | 12248 ng·h/mL | 2842 ng/mL |
| CC(C)(Cc1cccc([C@@]2(C)C(=O)Nc3nc(-c4nn(CCC(F)(F)C(F)(F)F)c5cc(Cl)cnc45)nc(N)c32)c1)C(=O)O [Compound 6-1] | 5173 ng·h/mL | 2825 ng/mL |
| CC(C)(Cc1csc([C@]2(C)C(=O)Nc3nc(-n4c(=O)n(Cc5ccccc5F)c5cc(F)ccc54)nc(N)c32)n1)C(=O)O [Compound 38-1] |  | 1743 ng/mL |
| CC(C)(Cc1csc(C2(C)C(=O)Nc3nc(-n4nc(Cc5cccc(F)c5F)c5ncc(F)cc54)nc(N)c32)n1)C(=O)O (single isomer, unassigned) [Compound 36-1] | 10133 ng·h/mL | 4067 ng/mL |
